According to patent US8802693B1, “Azaadamantane derivatives and methods of use” (priority 2011, dated 2014):

Experiments:
Assay type in all cases: in vivo, human
[1] = test system: subjects with mild-to-moderate Alzheimer's disease; test: Phase 2a Clinical Study A: ADAS-cog (13-item) total score; conditions: for ADAS-cog (13-Item) Total Score Observed Mean (SD) Final: final evaluation, 12-week treatment
Procedure: (§1) A Phase 2a proof-of-concept (POC) study in subjects with mild-to-moderate dementia of Alzheimer type was conducted. The study was a randomized, double-blind, placebo- and active-controlled, multicenter study designed to evaluate the efficacy and safety of Compound A (ABT-126) in subjects diagnosed with mild-to-moderate Alzheimer's disease, defined as meeting National Institute of Neurological and Communicative Disorders and Stroke/Alzheimer's Disease and Related Disorders Association (NINCDS/ADRDA) criteria for probable AD. […] Subjects were randomized in an equal ratio to one of four treatment groups (placebo, 5 mg Compound A, 25 mg Compound A, or donepezil) for a 12-week treatment period. The primary efficacy measure was the Alzheimer's Disease Assessment Scale—cognitive subscale (ADAS-Cog). Subjects were generally in good health and any chronic medical conditions were stable during the time of screening. Subjects were not taking other medication for Alzheimer's disease.
(§2) The study was a Phase 2, randomized, double-blind, placebo- and active-controlled, multicenter study designed to evaluate the dose-response relationship and safety of two doses of Compound A in subjects diagnosed with mild to moderate AD, defined as meeting NINCDS/ADRDA criteria for probable AD.
(§3) The study consisted of a Screening Period of up to 28 days, a 12-week treatment period, and a post-treatment period. The screening period consisted of three visits: Screening Visit 1, Screening Visit 2, and Day −1. Upon completion of Day −1 procedures, eligible subjects were randomized through an Interactive Voice Response/Interactive Web-Based (IVR/IWB) system. Subjects were randomized in an equal ratio to one of four treatment groups (placebo, 5 mg Compound A, 25 mg Compound A, or donepezil).
(§4) Each subject was instructed to take study drug once-daily in the morning for 12 weeks. Subjects randomized to donepezil took 5 mg donepezil QD for the first 4 weeks and began 10 mg donepezil QD at Week 4 through the remainder of the study. The subject and investigator were blinded to the treatment assignment throughout the study.
(§5) The primary efficacy measure was the Alzheimer's Disease Assessment Scale-cognitive subscale (ADAS-cog). The ADAS-cog was designed to assess the cognitive impairments most common in AD. The ADAS-cog is a subscale of the ADAS, which focuses on cognitive functioning and memory. Two versions were used in the study: an 11-item version and an expanded (13-item) version. The 11-item version of the ADAS-cog was the primary endpoint measure in this study. ADAS-Cog (13-item) was administered throughout the study and the primary efficacy variable was considered the change from baseline to final evaluation on the ADAS-cog total score (11-item).
The 13-item ADAS-cog is comprised of the 11-item ADAS-cog with two additional items (Delayed Word Recall and a Number Cancellation Test) that are designed to assess attention and concentration. The Delayed Word Recall Test (range from 0 to 10) was an addition to the Word Recall Test to enhance sensitivity of the instrument in assessing cognition functioning on patients with mild AD. The Number Cancellation Test (range from 0 to 5) was reliable and sensitive to a broad range of dementia severity, and was recommended as a useful addition to the 11-item ADAS-cog. The total score of the 13-item ADAS-cog ranges from 0 to 85, with a higher score representing greater impairment. The ADAS-cog (13-item) was administered by a certified rater at Screening Visit 1, Screening Visit 2, and Day-1, as well as Weeks 4, 8, and 12 during the study.

[2] = test system: subjects with mild-to-moderate Alzheimer's disease; test: Phase 2a Clinical Study A: safety and tolerability
Procedure: as §1, §2, §4
(§6) Subjects completed 4 visits during the treatment period at Week 2, Week 4, Week 8 and Week 12. Subjects returned to the study site for a follow-up visit approximately 2 weeks after the Week 12 or premature discontinuation visit for a safety evaluation. In addition, study site personnel contacted each subject's caregiver by telephone approximately 30 days after the subject's last dose of study drug to ascertain the subject's safety status.

[3] = test system: subjects with mild-to-moderate Alzheimer's disease; test: Phase 2a Clinical Study A: ADAS-cog (11-item) total score; conditions: for ADAS-cog (11-Item) Total Score Observed Mean (SD) Final: final evaluation, 12-week treatment; for efficacy in treatment of core symptoms of Alzheimer's disease in human patients (summary in words): Phase 2a study, dose not stated
Procedure: as §1, §2, §3, §4, §6, §5
The 11-item ADAS-cog includes the following tests: Word Recall, Commands, Constructional Praxis, Naming Objects and Fingers, Ideational Praxis, Orientation, Word Recognition, Remembering Test Instructions, Comprehension of Spoken Language, Spoken Language Ability, and Word Finding Difficulty. The total score of the 11-item ADAS-cog ranges from 0 to 70, with a higher score representing greater impairment.
The primary efficacy variable was the change from baseline to the final observation on the ADAS-cog (11-item) total score. The primary efficacy analysis was carried out using an ANCOVA model with treatment and study site as the main effects and baseline score as the covariate. […]

[4] = 5 mg QD, ANCOVA, baseline to final evaluation
[5] = 25 mg QD, ANCOVA, baseline to final evaluation

Compound: c1ccc(-c2nnc(O[C@@H]3C4CC5C[C@H]3CN(C5)C4)s2)cc1 [Compound A, (4s)-4-(5-phenyl-1,3,4-thiadiazol-2-yloxy)-1-azatricyclo[3.3.1.1^3,7]decane]
- ADAS-cog (13-Item) Total Score Difference From Placebo LS Mean (SE) of Difference [1, 4]: −0.13 (1.03)
- ADAS-cog (13-Item) Total Score LS Mean (SE) of Change [1, 4]: −0.90 (0.73)
- ADAS-cog (13-Item) Total Score Observed Mean (SD) change ([1]; 5 mg QD, Change to Week 4): −0.67 (4.31)
- ADAS-cog (13-Item) Total Score Observed Mean (SD) change ([1]; 5 mg QD, Change to Week 8): −0.76 (5.88)
- ADAS-cog (13-Item) Total Score Observed Mean (SD) change ([1]; 5 mg QD, Change to Week 12): −1.20 (6.36)
- ADAS-cog (13-Item) Total Score Difference From Placebo LS Mean (SE) of Difference ([1]; 5 mg QD, MMRM, Week 4): −0.30 (0.73)
- ADAS-cog (13-Item) Total Score LS Mean (SE) of Change from Baseline ([1]; 5 mg QD, MMRM, Week 4): −0.30 (0.52)
- ADAS-cog (13-Item) Total Score Difference From Placebo LS Mean (SE) of Difference ([1]; 5 mg QD, MMRM, Week 8): −0.29 (0.95)
- ADAS-cog (13-Item) Total Score LS Mean (SE) of Change from Baseline ([1]; 5 mg QD, MMRM, Week 8): −0.64 (0.67)
- ADAS-cog (13-Item) Total Score Difference From Placebo LS Mean (SE) of Difference ([1]; 5 mg QD, MMRM, Week 12): 0.15 (1.04)
- ADAS-cog (13-Item) Total Score LS Mean (SE) of Change from Baseline ([1]; 5 mg QD, MMRM, Week 12): −0.99 (0.73)
- ADAS-cog (13-Item) Total Score Observed Mean (SD) Final ([1]; 5 mg QD): 35.92 (12.07)
- ADAS-cog (13-Item) Total Score Difference From Placebo LS Mean (SE) of Difference [1, 5]: −1.83 (1.05)
- ADAS-cog (13-Item) Total Score LS Mean (SE) of Change [1, 5]: −2.60 (0.75)
- ADAS-cog (13-Item) Total Score Observed Mean (SD) change ([1]; 25 mg QD, Change to Week 4): −2.38 (4.72)
- ADAS-cog (13-Item) Total Score Observed Mean (SD) change ([1]; 25 mg QD, Change to Week 8): −2.78 (6.05)
- ADAS-cog (13-Item) Total Score Observed Mean (SD) change ([1]; 25 mg QD, Change to Week 12): −2.89 (6.77)
- ADAS-cog (13-Item) Total Score Difference From Placebo LS Mean (SE) of Difference ([1]; 25 mg QD, MMRM, Week 4): −2.13 (0.75)
- ADAS-cog (13-Item) Total Score LS Mean (SE) of Change from Baseline ([1]; 25 mg QD, MMRM, Week 4): −2.13 (0.53)
- ADAS-cog (13-Item) Total Score Difference From Placebo LS Mean (SE) of Difference ([1]; 25 mg QD, MMRM, Week 8): −2.06 (0.98)
- ADAS-cog (13-Item) Total Score LS Mean (SE) of Change from Baseline ([1]; 25 mg QD, MMRM, Week 8): −2.42 (0.70)
- ADAS-cog (13-Item) Total Score Difference From Placebo LS Mean (SE) of Difference ([1]; 25 mg QD, MMRM, Week 12): −1.61 (1.08)
- ADAS-cog (13-Item) Total Score LS Mean (SE) of Change from Baseline ([1]; 25 mg QD, MMRM, Week 12): −2.74 (0.77)
- ADAS-cog (13-Item) Total Score Observed Mean (SD) Final ([1]; 25 mg QD): 38.08 (13.81)
- tolerability in subjects with AD ([2]; 5 mg and 25 mg QD (doses up to 25 mg QD), 12 weeks): generally well tolerated
- changes in vital signs, ECG parameters or laboratory assessments ([2]; 5 mg and 25 mg QD, 12 weeks): no consistent clinically meaningful changes
- serious adverse events considered by the investigator to be related ([2]; 5 mg and 25 mg QD, 12 weeks): none that were considered by the investigator to be related
- dose dependence of adverse events ([2]; 25 mg group): no evidence for a dose-dependent increase in adverse events
- ADAS-cog (11-Item) Total Score Difference From Placebo LS Mean (SE) of Difference [3, 4]: −0.08
- ADAS-cog (11-Item) Total Score LS Mean (SE) of Change [3, 4]: −0.76 (0.64)
- ADAS-cog (11-Item) Total Score Observed Mean (SD) change ([3]; 5 mg QD, Change to Week 4): −0.36 (4.01)
- ADAS-cog (11-Item) Total Score Observed Mean (SD) change ([3]; 5 mg QD, Change to Week 8): −0.58 (4.83)
- ADAS-cog (11-Item) Total Score Observed Mean (SD) change ([3]; 5 mg QD, Change to Week 12): −1.01 (5.50)
- ADAS-cog (11-Item) Total Score Difference From Placebo LS Mean (SE) of Difference ([3]; 5 mg QD, MMRM, Week 4): 0.03 (0.65)
- ADAS-cog (11-Item) Total Score LS Mean (SE) of Change from Baseline ([3]; 5 mg QD, MMRM, Week 4): −0.06 (0.47)
- ADAS-cog (11-Item) Total Score Difference From Placebo LS Mean (SE) of Difference ([3]; 5 mg QD, MMRM, Week 8): 0.07 (0.81)
- ADAS-cog (11-Item) Total Score LS Mean (SE) of Change from Baseline ([3]; 5 mg QD, MMRM, Week 8): −0.49 (0.57)
- ADAS-cog (11-Item) Total Score Difference From Placebo LS Mean (SE) of Difference ([3]; 5 mg QD, MMRM, Week 12): 0.03 (0.90)
- ADAS-cog (11-Item) Total Score LS Mean (SE) of Change from Baseline ([3]; 5 mg QD, MMRM, Week 12): −0.80 (0.64)
- ADAS-cog (11-Item) Total Score Observed Mean (SD) Final ([3]; 5 mg QD): 24.30 (10.50)
- cognition relative to placebo, ADAS-cog (11-item) MMRM (in words) ([3]; 5 mg, over the 12 weeks): no improvement in cognition relative to placebo
- cognition relative to placebo, ADAS-cog (11-item) MMRM (in words) ([3]; 25 mg): trend toward statistical significance at Weeks 4 and 8 in cognitive improvement
- ADAS-cog (11-Item) Total Score Difference From Placebo LS Mean (SE) of Difference [3, 5]: −1.19
- ADAS-cog (11-Item) Total Score LS Mean (SE) of Change [3, 5]: −1.86 (0.64)
- ADAS-cog (11-Item) Total Score Observed Mean (SD) change ([3]; 25 mg QD, Change to Week 4): −1.18 (4.29)
- ADAS-cog (11-Item) Total Score Observed Mean (SD) change ([3]; 25 mg QD, Change to Week 8): −1.94 (5.12)
- ADAS-cog (11-Item) Total Score Observed Mean (SD) change ([3]; 25 mg QD, Change to Week 12): −2.12 (5.53)
- ADAS-cog (11-Item) Total Score Difference From Placebo LS Mean (SE) of Difference ([3]; 25 mg QD, MMRM, Week 4): −0.84 (0.65)
- ADAS-cog (11-Item) Total Score LS Mean (SE) of Change from Baseline ([3]; 25 mg QD, MMRM, Week 4): −0.94 (0.46)
- ADAS-cog (11-Item) Total Score Difference From Placebo LS Mean (SE) of Difference ([3]; 25 mg QD, MMRM, Week 8): −1.11 (0.82)
- ADAS-cog (11-Item) Total Score LS Mean (SE) of Change from Baseline ([3]; 25 mg QD, MMRM, Week 8): −1.67 (0.58)
- ADAS-cog (11-Item) Total Score Difference From Placebo LS Mean (SE) of Difference ([3]; 25 mg QD, MMRM, Week 12): −1.14 (0.91)
- ADAS-cog (11-Item) Total Score LS Mean (SE) of Change from Baseline ([3]; 25 mg QD, MMRM, Week 12): −1.97 (0.65)
- ADAS-cog (11-Item) Total Score Observed Mean (SD) Final ([3]; 25 mg QD): 26.61 (12.09)
- efficacy (in words) ([3]; 25 mg dose, 12 weeks): Evidence for efficacy
- efficacy in treatment of core symptoms of Alzheimer's disease in human patients (summary in words) [3]: signal for efficacy
- efficacy in treatment of core symptoms of Alzheimer's disease in human patients (summary in words) ([3]; listed as ABT-126): statistically significant efficacy compared to placebo
